“And” between values parts separate entries of the source, which are not always exact repeats. Equal values may be shown once. Inconclusive results are not listed.
Test system: BDF1 mice, B16 melanoma s.c., survival/tumor T/C
Assay: NCI In Vivo Anticancer Drug Screen. Data for tumor model B16 Melanoma (subcutaneous) in B6D2F1 (BDF1) mice
Procedure: The antitumor activity of compounds was measured in mice bearing transplantable tumors. Survival or tumor size were measured and the results are expressed as the measurement made in the treated group (T) divided by the measurement made in the vehicle treated control group (C). The tumor model used in this assay is B16 Melanoma (subcutaneous) in B6D2F1 (BDF1) mice

[1] = endpoint: median tumor weight (est.), dose: 15.0 mg/kg/injection, schedule: Q01DX001 (ip), vehicle: Klucel (hydroxypropylcellulose) (HPC), higher = larger tumour

## CC1CCC(NC(=O)N(CCCl)N=O)CC1 (centres undefined)
endpoint: median survival time, dose: 2.0 mg/kg/injection, schedule: Q02DX009 (ip), vehicle: Klucel (hydroxypropylcellulose) (HPC), higher = longer survival
  T/C: 113 % of control
endpoint: median survival time, dose: 2.5 mg/kg/injection, schedule: Q04DX003 (ip), vehicle: other, higher = longer survival
  T/C: 123 % of control
endpoint: median survival time, dose: 4.0 mg/kg/injection, schedule: Q01DX001 (ip), vehicle: saline with Tween-80, higher = longer survival
  T/C: 87 % of control
endpoint: median survival time, dose: 5.0 mg/kg/injection, schedule: Q04DX003 (ip), vehicle: other, higher = longer survival
  T/C: 104 % of control
endpoint: median survival time, dose: 8.0 mg/kg/injection, schedule: Q01DX001 (ip), vehicle: saline with Tween-80, higher = longer survival
  T/C: 87 % of control and 120 % of control
endpoint: median survival time, dose: 8.0 mg/kg/injection, schedule: Q02DX009 (ip), vehicle: Klucel (hydroxypropylcellulose) (HPC), higher = longer survival
  T/C: 189 % of control
endpoint: median survival time, dose: 8.0 mg/kg/injection, schedule: Q04DX003 (ip), vehicle: saline with Tween-80, higher = longer survival
  T/C: 106 % of control
endpoint: median survival time, dose: 10.0 mg/kg/injection, schedule: Q01DX001 (ip), vehicle: other, higher = longer survival
  T/C: 111 % of control
endpoint: median survival time, dose: 12.0 mg/kg/injection, schedule: Q04DX003 (ip), vehicle: saline with Tween-80, higher = longer survival
  T/C: 101 % of control
endpoint: median survival time, dose: 16.0 mg/kg/injection, schedule: Q01DX001 (ip), vehicle: saline with Tween-80, higher = longer survival
  T/C: 124 % of control
endpoint: median survival time, dose: 16.0 mg/kg/injection, schedule: Q02DX009 (ip), vehicle: Klucel (hydroxypropylcellulose) (HPC), higher = longer survival
  T/C: 109 % of control
endpoint: median survival time, dose: 18.0 mg/kg/injection, schedule: Q01DX001 (ip), vehicle: saline with Tween-80, higher = longer survival
  T/C: 120 % of control
endpoint: median survival time, dose: 18.0 mg/kg/injection, schedule: Q04DX003 (ip), vehicle: saline with Tween-80, higher = longer survival
  T/C: 192 % of control
endpoint: median survival time, dose: 20.0 mg/kg/injection, schedule: Q01DX001 (ip), vehicle: other, higher = longer survival
  T/C: 192 % of control
endpoint: median survival time, dose: 20.0 mg/kg/injection, schedule: Q04DX003 (ip), vehicle: other, higher = longer survival
  T/C: 223 % of control and 256 % of control
endpoint: median survival time, dose: 32.0 mg/kg/injection, schedule: Q01DX001 (ip), vehicle: saline with Tween-80, higher = longer survival
  T/C: 157 % of control
endpoint: median survival time, dose: 36.0 mg/kg/injection, schedule: Q01DX001 (ip), vehicle: saline with Tween-80, higher = longer survival
  T/C: 213 % of control
[1]
  T/C: 50 % of control and 72 % of control
endpoint: median tumor weight (est.), dose: 30.0 mg/kg/injection, schedule: Q01DX001 (ip), vehicle: Klucel (hydroxypropylcellulose) (HPC), higher = larger tumour
  T/C: 68 % of control
endpoint: median tumor weight (est.), dose: 60.0 mg/kg/injection, schedule: Q01DX001 (ip), vehicle: Klucel (hydroxypropylcellulose) (HPC), higher = larger tumour
  T/C: 45 % of control

## C1CN1c1nc(N2CC2)nc(N2CC2)n1
endpoint: median survival time, dose: 0.12 mg/kg/injection, schedule: Q01DX009 (ip), vehicle: saline, higher = longer survival
  T/C: 106 % of control
endpoint: median survival time, dose: 0.5 mg/kg/injection, schedule: Q01DX009 (ip), vehicle: saline with Tween-80, higher = longer survival
  T/C: 110 % of control
endpoint: median survival time, dose: 0.5 mg/kg/injection, schedule: Q08DX002 (ip), vehicle: saline with Tween-80, higher = longer survival
  T/C: 104 % of control
endpoint: median survival time, dose: 1.0 mg/kg/injection, schedule: Q01DX009 (ip), vehicle: saline with Tween-80, higher = longer survival
  T/C: 93 % of control
endpoint: median survival time, dose: 2.0 mg/kg/injection, schedule: Q08DX002 (ip), vehicle: saline with Tween-80, higher = longer survival
  T/C: 179 % of control
endpoint: median survival time, dose: 4.0 mg/kg/injection, schedule: Q08DX002 (ip), vehicle: saline with Tween-80, higher = longer survival
  T/C: 87 % of control
endpoint: median tumor weight (est.), dose: 0.12 mg/kg/injection, schedule: Q01DX009 (ip), vehicle: saline with Tween-80, higher = larger tumour
  T/C: 154 % of control
endpoint: median tumor weight (est.), dose: 0.25 mg/kg/injection, schedule: Q01DX009 (ip), vehicle: saline with Tween-80, higher = larger tumour
  T/C: 95 % of control
endpoint: median tumor weight (est.), dose: 0.5 mg/kg/injection, schedule: Q01DX009 (ip), vehicle: saline with Tween-80, higher = larger tumour
  T/C: 83 % of control
endpoint: median tumor weight (est.), dose: 0.5 mg/kg/injection, schedule: Q08DX002 (ip), vehicle: saline with Tween-80, higher = larger tumour
  T/C: 268 % of control
endpoint: median tumor weight (est.), dose: 1.0 mg/kg/injection, schedule: Q01DX009 (ip), vehicle: saline, higher = larger tumour
  T/C: 34 % of control
endpoint: median tumor weight (est.), dose: 1.0 mg/kg/injection, schedule: Q08DX002 (ip), vehicle: saline with Tween-80, higher = larger tumour
  T/C: 104 % of control
endpoint: median tumor weight (est.), dose: 2.0 mg/kg/injection, schedule: Q08DX002 (ip), vehicle: saline with Tween-80, higher = larger tumour
  T/C: 81 % of control
endpoint: median tumor weight (est.), dose: 4.0 mg/kg/injection, schedule: Q08DX002 (ip), vehicle: saline with Tween-80, higher = larger tumour
  T/C: 19 % of control
endpoint: median tumor weight (est.), dose: 4.0 mg/kg/injection, schedule: Q08DX002 (ip), vehicle: saline, higher = larger tumour
  T/C: 86 % of control

## O=NN(CCF)C(=O)NC1CCCCC1
endpoint: median survival time, dose: 0.63 mg/kg/injection, schedule: Q01HX012 (ip), vehicle: Klucel (hydroxypropylcellulose) (HPC), higher = longer survival
  T/C: 123 % of control
endpoint: median survival time, dose: 1.25 mg/kg/injection, schedule: Q01HX012 (ip), vehicle: Klucel (hydroxypropylcellulose) (HPC), higher = longer survival
  T/C: 107 % of control
endpoint: median survival time, dose: 1.25 mg/kg/injection, schedule: Q02HX006 (ip), vehicle: Klucel (hydroxypropylcellulose) (HPC), higher = longer survival
  T/C: 96 % of control
endpoint: median survival time, dose: 1.88 mg/kg/injection, schedule: Q03HX004 (ip), vehicle: Klucel (hydroxypropylcellulose) (HPC), higher = longer survival
  T/C: 96 % of control
endpoint: median survival time, dose: 2.5 mg/kg/injection, schedule: Q02HX006 (ip), vehicle: Klucel (hydroxypropylcellulose) (HPC), higher = longer survival
  T/C: 101 % of control
endpoint: median survival time, dose: 3.11 mg/kg/injection, schedule: Q01DX007 (ip), vehicle: Klucel (hydroxypropylcellulose) (HPC), higher = longer survival
  T/C: 98 % of control
endpoint: median survival time, dose: 5.0 mg/kg/injection, schedule: Q01HX012 (ip), vehicle: Klucel (hydroxypropylcellulose) (HPC), higher = longer survival
  T/C: 242 % of control
endpoint: median survival time, dose: 5.0 mg/kg/injection, schedule: Q02HX006 (ip), vehicle: Klucel (hydroxypropylcellulose) (HPC), higher = longer survival
  T/C: 115 % of control
endpoint: median survival time, dose: 5.18 mg/kg/injection, schedule: Q01DX007 (ip), vehicle: Klucel (hydroxypropylcellulose) (HPC), higher = longer survival
  T/C: 102 % of control
endpoint: median survival time, dose: 7.5 mg/kg/injection, schedule: Q01DX001 (ip), vehicle: Klucel (hydroxypropylcellulose) (HPC), higher = longer survival
  T/C: 107 % of control
endpoint: median survival time, dose: 7.5 mg/kg/injection, schedule: Q03HX004 (ip), vehicle: Klucel (hydroxypropylcellulose) (HPC), higher = longer survival
  T/C: 115 % of control
endpoint: median survival time, dose: 10.0 mg/kg/injection, schedule: Q02HX006 (ip), vehicle: Klucel (hydroxypropylcellulose) (HPC), higher = longer survival
  T/C: 261 % of control
endpoint: median survival time, dose: 14.4 mg/kg/injection, schedule: Q01DX007 (ip), vehicle: Klucel (hydroxypropylcellulose) (HPC), higher = longer survival
  T/C: 120 % of control
endpoint: median survival time, dose: 15.0 mg/kg/injection, schedule: Q01DX001 (ip), vehicle: Klucel (hydroxypropylcellulose) (HPC), higher = longer survival
  T/C: 119 % of control
endpoint: median survival time, dose: 15.0 mg/kg/injection, schedule: Q03HX004 (ip), vehicle: Klucel (hydroxypropylcellulose) (HPC), higher = longer survival
  T/C: 157 % of control
endpoint: median survival time, dose: 15.8 mg/kg/injection, schedule: Q01DX007 (ip), vehicle: Klucel (hydroxypropylcellulose) (HPC), higher = longer survival
  T/C: 115 % of control
endpoint: median survival time, dose: 20.0 mg/kg/injection, schedule: Q02HX006 (ip), vehicle: Klucel (hydroxypropylcellulose) (HPC), higher = longer survival
  T/C: 88 % of control
endpoint: median survival time, dose: 23.7 mg/kg/injection, schedule: Q01DX007 (ip), vehicle: Klucel (hydroxypropylcellulose) (HPC), higher = longer survival
  T/C: 68 % of control
endpoint: median survival time, dose: 30.0 mg/kg/injection, schedule: Q01DX001 (ip), vehicle: Klucel (hydroxypropylcellulose) (HPC), higher = longer survival
  T/C: 164 % of control
endpoint: median survival time, dose: 30.0 mg/kg/injection, schedule: Q03HX004 (ip), vehicle: Klucel (hydroxypropylcellulose) (HPC), higher = longer survival
  T/C: 326 % of control
endpoint: median survival time, dose: 35.6 mg/kg/injection, schedule: Q01DX007 (ip), vehicle: Klucel (hydroxypropylcellulose) (HPC), higher = longer survival
  T/C: 69 % of control
endpoint: median survival time, dose: 53.3 mg/kg/injection, schedule: Q01DX007 (ip), vehicle: Klucel (hydroxypropylcellulose) (HPC), higher = longer survival
  T/C: 60 % of control
endpoint: median survival time, dose: 60.0 mg/kg/injection, schedule: Q01DX001 (ip), vehicle: Klucel (hydroxypropylcellulose) (HPC), higher = longer survival
  T/C: 238 % of control
endpoint: median survival time, dose: 80.0 mg/kg/injection, schedule: Q01DX007 (ip), vehicle: Klucel (hydroxypropylcellulose) (HPC), higher = longer survival
  T/C: 55 % of control
endpoint: median tumor weight (est.), dose: 1.25 mg/kg/injection, schedule: Q01HX012 (ip), vehicle: Klucel (hydroxypropylcellulose) (HPC), higher = larger tumour
  T/C: 59 % of control
endpoint: median tumor weight (est.), dose: 1.25 mg/kg/injection, schedule: Q02HX006 (ip), vehicle: Klucel (hydroxypropylcellulose) (HPC), higher = larger tumour
  T/C: 114 % of control
endpoint: median tumor weight (est.), dose: 1.88 mg/kg/injection, schedule: Q03HX004 (ip), vehicle: Klucel (hydroxypropylcellulose) (HPC), higher = larger tumour
  T/C: 61 % of control
endpoint: median tumor weight (est.), dose: 2.5 mg/kg/injection, schedule: Q01HX012 (ip), vehicle: Klucel (hydroxypropylcellulose) (HPC), higher = larger tumour
  T/C: 10 % of control
endpoint: median tumor weight (est.), dose: 2.5 mg/kg/injection, schedule: Q02HX006 (ip), vehicle: Klucel (hydroxypropylcellulose) (HPC), higher = larger tumour
  T/C: 67 % of control
endpoint: median tumor weight (est.), dose: 3.75 mg/kg/injection, schedule: Q03HX004 (ip), vehicle: Klucel (hydroxypropylcellulose) (HPC), higher = larger tumour
  T/C: 83 % of control
endpoint: median tumor weight (est.), dose: 5.0 mg/kg/injection, schedule: Q02HX006 (ip), vehicle: Klucel (hydroxypropylcellulose) (HPC), higher = larger tumour
  T/C: 26 % of control
endpoint: median tumor weight (est.), dose: 7.5 mg/kg/injection, schedule: Q01DX001 (ip), vehicle: Klucel (hydroxypropylcellulose) (HPC), higher = larger tumour
  T/C: 110 % of control
endpoint: median tumor weight (est.), dose: 7.5 mg/kg/injection, schedule: Q03HX004 (ip), vehicle: Klucel (hydroxypropylcellulose) (HPC), higher = larger tumour
  T/C: 70 % of control
[1]
  T/C: 70 % of control
